Results: the supplement of paper PMC10307832

Legend:
Test in all cases: relative viability (nuclei count vs DMSO), 5 days (fraction); higher = more cells survive
[1] = compound: O=c1ncccn1[C@@H]1O[C@H](CO)[C@@H](O)[C@H]1O [Zebularine] + CC(=O)Nc1cccc(-n2c(=O)n(C3CC3)c(=O)c3c(Nc4ccc(I)cc4F)n(C)c(=O)c(C)c32)c1 [Trametinib] (partner 0.02 µM)
Method in brief: (§1)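 After 5 days of treatment, lung cancer cells in 1536-well plates were fixed and stained in a single step (final 0.05% Triton X-100, 1% formaldehyde, 1 ug/ml Hoechst) and their nuclei counted on 4× images. Treatment had been applied by pin tool the day after seeding as one drug alone or as a fixed anchor-drug dose with five library-drug doses (not always all listed) in √10 steps. Relative viability is the nuclei count of treated wells divided by that of vehicle wells, and values are medians of duplicate plates.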

[2] = compound: CC(C)CCN1c2nc(Nc3cc(F)c(O)c(F)c3)ncc2N(C)C(=O)C1C [BI-D1870] + N=C(N)NC(=N)NCCc1ccccc1 [Phenformin] (partner 250 µM)
Method in brief: as §1

[3] = compound: O=c1ncccn1[C@@H]1O[C@H](CO)[C@@H](O)[C@H]1O [Zebularine] + O=C(CCCCCCC(=O)Nc1ccccc1)NO [Vorinostat] (partner 1 µM)
Method in brief: as §1

[4] = compound: O=c1ncccn1[C@@H]1O[C@H](CO)[C@@H](O)[C@H]1O [Zebularine] + CS(=O)(=O)N1CCN(Cc2cc3nc(-c4cccc5[nH]ncc45)nc(N4CCOCC4)c3s2)CC1 [Pictilisib] (partner 1 µM)
Method in brief: as §1

Row | Cell Line | relative viability ([1]; first compound 1 µM) | relative viability ([1]; first compound 3.162 µM) | relative viability ([1]; first compound 10 µM) | relative viability ([1]; first compound 31.62 µM) | relative viability ([1]; first compound 100 µM) | relative viability ([2]; first compound 0.04 µM) | relative viability ([2]; first compound 0.1265 µM) | relative viability ([2]; first compound 0.4 µM) | relative viability ([2]; first compound 1.265 µM) | relative viability ([2]; first compound 4 µM) | relative viability ([3]; first compound 1 µM) | relative viability ([3]; first compound 3.162 µM) | relative viability ([3]; first compound 10 µM) | relative viability ([3]; first compound 31.62 µM) | relative viability ([3]; first compound 100 µM) | relative viability ([4]; first compound 1 µM) | relative viability ([4]; first compound 3.162 µM) | relative viability ([4]; first compound 10 µM) | relative viability ([4]; first compound 31.62 µM) | relative viability ([4]; first compound 100 µM)
1 | NCI-H2126 | 0.532 | 0.561 | 0.476 | 0.557 | 0.437 | 0.525 | 0.493 | 0.508 | 0.53 | 0.511 | 0.664 | 0.524 | 0.853 | 0.698 | 0.474 | 0.544 | 0.434 | 0.535 | 0.495 | 0.43
2 | NCI-H2170 | 0.931 | 0.919 | 0.677 | 0.874 | 0.441 | 0.439 | 0.414 | 0.415 | 0.423 | 0.441 | 0.886 | 0.842 | 0.533 | 0.868 | 0.581 | 0.385 | 0.31 | 0.348 | 0.322 | 0.243
3 | NCI-H2228 | 0.612 | 0.251 | – | 0.417 | 0.252 | 0.4 | 0.417 | 0.317 | 0.348 | 0.288 | 0.825 | 0.671 | – | 0.412 | 0.377 | 0.563 | 0.416 | 0.228 | 0.329 | 0.251
4 | NCI-H2347 | 0.294 | 0.299 | 0.237 | 0.312 | 0.235 | 0.67 | 0.377 | 0.405 | 0.443 | 0.406 | 0.608 | 0.653 | 0.457 | 0.431 | 0.387 | 0.8 | 0.529 | 0.439 | 0.558 | 0.462
5 | NCI-H2405 | 0.602 | 0.602 | 0.516 | 0.683 | 0.532 | 0.436 | 0.415 | 0.386 | 0.438 | 0.398 | 1.2 | 0.981 | 0.894 | 1 | 0.826 | 0.476 | 0.474 | 0.399 | 0.387 | 0.409
6 | NCI-H3122 | 0.268 | 0.294 | 0.22 | 0.283 | 0.251 | 0.362 | 0.354 | 0.383 | 0.39 | 0.346 | 1.14 | 0.937 | 0.792 | 1.09 | 0.996 | 0.669 | 0.575 | 0.575 | 0.613 | 0.593
7 | PC-3 [JPC-3] | 0.779 | 0.696 | 0.622 | 0.71 | 0.539 | 0.514 | 0.485 | 0.482 | 0.498 | 0.484 | 1.01 | 0.874 | 0.785 | 0.737 | 0.658 | 0.745 | 0.612 | 0.538 | 0.738 | 0.478
8 | PC-14 | 0.7 | 0.517 | 0.197 | 0.117 | 0.101 | 0.669 | 0.521 | 0.587 | 0.627 | 0.447 | 0.756 | 0.439 | 0.214 | 0.154 | 0.0885 | 0.767 | 0.574 | 0.151 | 0.111 | 0.0955
9 | RERF-LC-KJ | 1.02 | 0.89 | 0.719 | 0.87 | 0.916 | 0.422 | 0.396 | 0.407 | 0.435 | 0.285 | 0.734 | 0.738 | 0.633 | 0.762 | 0.683 | 0.662 | 0.485 | 0.348 | 0.565 | 0.474
10 | SK-LU-1 | 0.52 | 0.485 | 0.412 | 0.446 | 0.371 | 0.505 | 0.525 | 0.514 | 0.63 | 0.358 | 0.891 | 0.725 | 0.557 | 0.555 | 0.487 | 0.63 | 0.495 | 0.393 | 0.501 | 0.31
11 | SK-MES-1 | 0.558 | 0.581 | 0.491 | 0.503 | 0.305 | 0.732 | 0.593 | 0.613 | 0.648 | 0.363 | 1.28 | 1.18 | 0.914 | 1.09 | 0.351 | 0.375 | 0.399 | 0.294 | 0.346 | 0.203
12 | SW 1573 | 0.577 | 0.645 | – | 0.545 | 0.61 | 0.487 | 0.212 | 0.308 | 0.394 | 0.144 | 0.964 | 0.689 | – | 0.772 | 0.521 | 0.576 | 0.505 | – | 0.471 | 0.377
13 | UMC-11 | 0.709 | 0.754 | 0.422 | 0.644 | 0.376 | 0.332 | 0.285 | 0.33 | 0.295 | 0.183 | 0.388 | 0.359 | 0.335 | 0.331 | 0.279 | 0.89 | 0.451 | 0.467 | 0.653 | 0.35
